Data: patent publication US12385039B2, “Trinucleotide cap analogs, preparation and uses thereof” (LIFE TECHNOLOGIES CORPORATION, priority 2020, dated 2025)

What was measured:
T7 or SP6 RNA polymerase = details: either 3'-OH of G or m7G can initiate elongation; cited from earlier work
T7 RNA polymerase = T7 RNA polymerase (Escherichia phage T7, UniProt P00573); details: HB-WT Template, ARCA Cap (4:1 ARCA:GTP)
Sequence of T7 RNA polymerase (P00573 whole entry, looked up): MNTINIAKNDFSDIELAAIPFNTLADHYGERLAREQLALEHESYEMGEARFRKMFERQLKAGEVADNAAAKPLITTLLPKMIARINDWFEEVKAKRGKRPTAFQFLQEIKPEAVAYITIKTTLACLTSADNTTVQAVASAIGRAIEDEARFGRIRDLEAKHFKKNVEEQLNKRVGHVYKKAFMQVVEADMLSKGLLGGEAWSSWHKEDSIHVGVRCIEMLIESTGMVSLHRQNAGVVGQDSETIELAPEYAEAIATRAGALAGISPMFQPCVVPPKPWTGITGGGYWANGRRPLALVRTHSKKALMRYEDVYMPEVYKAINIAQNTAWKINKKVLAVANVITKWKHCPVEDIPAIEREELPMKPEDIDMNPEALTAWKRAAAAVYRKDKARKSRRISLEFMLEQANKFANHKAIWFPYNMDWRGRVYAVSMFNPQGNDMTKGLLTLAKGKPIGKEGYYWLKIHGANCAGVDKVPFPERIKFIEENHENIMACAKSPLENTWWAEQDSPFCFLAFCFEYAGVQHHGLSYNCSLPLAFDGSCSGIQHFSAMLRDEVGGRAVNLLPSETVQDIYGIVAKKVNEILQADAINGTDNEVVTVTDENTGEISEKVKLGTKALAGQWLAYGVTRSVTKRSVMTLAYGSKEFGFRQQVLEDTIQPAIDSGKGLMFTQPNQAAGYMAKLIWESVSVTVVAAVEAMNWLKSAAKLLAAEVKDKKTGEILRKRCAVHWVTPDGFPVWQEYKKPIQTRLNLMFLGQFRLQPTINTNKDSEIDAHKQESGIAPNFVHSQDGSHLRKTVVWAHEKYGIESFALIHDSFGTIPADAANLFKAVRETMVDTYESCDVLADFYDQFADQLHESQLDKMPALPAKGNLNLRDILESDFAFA
Experimental: The DNAzyme reaction was performed in a 20 μl reaction containing 1-2 μg RNA and 0.5 μM DNAzyme in 50 mM Tris-HCl pH 7.5. The reaction mixture was preheated at 85° C. for 30 seconds and equilibrate at 37° C. for 5 minutes and added magnesium chloride to 10 mM so that the total volume was 20 μl. The reaction mixture was incubated at 37° C. for 1 hour and stopped by adding 2 μL TURBO DNase and incubating at 37° C. for 30 minutes.
The DNAzyme reaction mixture was prepared for gel analysis by mixing with 2× NOVEX™ TBE-Urea sample buffer (Thermo Fisher Scientific, cat. no. LC6876) and heating at 70° C. for 2 minutes. The sample was loaded onto a NovEx™ 15% TBE-Urea gel (Thermo Fisher Scientific, cat. no. EC68855BOX) and ran at 15 V, 15 mA for 1 hour and 40 minutes or until the bromophenol blue dye migrated to the bottom of the gel. The gel was removed from the cassette, washed in water, and stained with SYBR™ Gold Nucleic Acid Gel Stain (Thermo Fisher Scientific, cat. no. S11494) for 5-10 minutes. Following a brief wash in water, the gel was visualized over an UV light and an image was captured using an iBRIGHT™ system (Thermo Fisher Scientific). Capping efficiency was determined using […] ™ software (ProteinSimple) to measure band intensities of the fast and slow migrating transcripts (capped transcripts are longer than uncapped transcripts; therefore uncapped migrates faster).

SMILES | capped RNA that is translatable (T7 or SP6 RNA polymerase) [%] | Capping Efficiency Avg % capped (T7 RNA polymerase) [%]
Cn1c[n+]([C@@H]2O[C@H](COP(=O)(O)OP(=O)(O)OP(=O)(O)OC[C@H]3O[C@@H](n4cnc5c(=O)[nH]c(N)nc54)[C@H](O)[C@@H]3O)[C@@H](O)[C@H]2O)c2nc(N)[nH]c(=O)c21 [mCAP, m^7G(5′)ppp(5′)G] | ~50 | –
CO[C@H]1[C@@H](O)[C@H](n2c[n+](C)c3c(=O)[nH]c(N)nc32)O[C@@H]1COP(=O)(O)OP(=O)(O)OP(=O)(O)OC[C@H]1O[C@@H](n2cnc3c(=O)[nH]c(N)nc32)[C@H](O)[C@@H]1O [ARCA Cap] | – | 71.93
